“Also recorded” adds a separate entry of the source.
Experiments:
[1] = test system: intracellular cAMP / CREB; details: ref Herzig et al., 2001; Noriega et al., 2011; cited from earlier work
Description: Like its mammalian counterparts, numerous putative transcription factor binding sites were found in the upstream of the MC5R transcription start site. According to reports, Foxo4 may bind to the ...

[2] = test system: primary chicken hepatocytes; assay: Glucose production from primary cultured chicken hepatocytes; type: cell-based; details: primary chicken hepatocytes; 100 nM for 30 or 60 min, or 0.1–100 nM for 60 min; gluconeogenic substrates 20 mM lactate, 2 mM pyruvate; four independent experiments; Figures 7A,B
Experimental: (§1) To evaluate the effect of ACTH1-39 on chicken liver, the chicken hepatocytes were prepared and maintained as a monolayer culture. Briefly, one-month-old male chicken hepatocytes were isolated by perfusion of a liver with Ca^2+-free KRB buffer to remove blood cells, and being digested with 0.25% collagenase-I for 10 min. Hepatocytes were obtained following filtering and washing using M199 medium. Then the hepatocytes were plated in a Corning CellBIND 48-well microplate (Corning, NY, cat. no.3338) with M199 medium containing 100 U/ml penicillin and […] streptomycin (Gibco), 5 μg/ml bovine insulin (Sigma), and 5% FBS at 37°C in a 5% CO2 atmosphere. To adhere to the wall, the cells were incubated on the 48-well plate for 4 h.
Glucose production from primary cultured chicken hepatocytes was measured as previously described ([Collins et al., 2006]). Briefly, cells were washed three times with warm phosphate-buffered saline (PBS) to remove glucose, followed by treatment with 100 nM (or different concentration gradients) chicken ATCH1-39 for 30 min or 60 min in glucose-free medium containing gluconeogenic substrates (20 mM sodium lactate and 2 mM sodium pyruvate). Glucose concentration was determined with a glucose assay kit (Applygen, Beijing, China, catalog no. E1011). Briefly, the 5 µl medium was added into 195 µl reagent and incubated for 20 min at 37°C. Absorbance in 550 nm was measured in a standard glucose solution.

[3] = test system: MC5R mRNA, primary chicken hepatocytes; assay: MC5R mRNA in primary chicken hepatocytes, RT-qPCR; type: cell-based; details: 6 h
Experimental: as §1, with “h. For quantitative real-time PCR, primary cultured chicken hepatocytes were treated with various concentrations of ACTH1-39 (or other composition) at 37°C for 6 h. The relative amount of mRNA was calculated using the comparative Ct method. Chicken β-actin gene was used as the reference gene. Amplification of specific transcripts was confirmed by analyzing the melting curve profile performed at the end of each run and by determining the size of the PCR products using agarose electrophoresis and ethidium bromide staining.” for “h.”

Substance: glucagon: chicken glucagon; induce cAMP elevation in a dose-dependent way
- intracellular cAMP accumulation and CREB activation [1]: enhance the intracellular cAMP accumulation and activate CREB
- glucose production (in words) [2]: induction of gluconeogenesis
- increase in MC5R mRNA abundance ([3]; glucagon 10–100 nM, N = 4, Figure 6E): 3.5 fold
- MC5R mRNA abundance (in words) ([3]; primary chicken hepatocytes, N = 4, vs β-actin, Figures 6C-E): increased hepatic MC5R mRNA abundance; also recorded: enhance the expression of MC5R in cultured hepatocytes in a dose-dependent manner

From article PMC9583845, “Characterization of the chicken melanocortin 5 receptor and its potential role in regulating hepatic glucolipid metabolism” (Frontiers in Physiology, 2022)
